Reference: PubChem BioAssay AID623867 (Sanford-Burnham Center for Chemical Genomics, 2012)
Active and inactive are the calls of the source.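 How the source made its calls: active means mean IC50 of at most 10 µM; inactive means the rest.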

Each compound was assayed on H9c2 cardiomyocytes, H2O2 injury protection, ATP luminescence, 2 h (assay: protection of H9c2 cells from H2O2 death, SAR follow-up, hydrogen peroxide, ATP luminescence (AID 623867)).

| SMILES | IC50 |
| --- | --- |
| COCCn1c(SC(C(=O)Nc2cc(C)ccc2C)c2ccccc2)nc2ccccc2c1=O (stereo not given) | > 79 µM (inactive) |
| COc1ccc(-c2cc(C(=O)NCc3ccccc3)c3ccccc3n2)cc1OC | > 79 µM (inactive) |
| COc1ccc2c(c1OC)C(=O)N1c3ccccc3C(=O)N(c3ccc(F)cc3)C21 (stereo not given) | 33.2 µM (inactive) |
| O=C(C(=O)N1CCCC1)c1c(-c2ccccc2)[nH]c2ccccc12 | > 79 µM (inactive) |
| COc1ccc(-n2cc(-c3ccccc3)c3c(NCc4ccccc4)ncnc32)cc1 | > 79 µM (inactive) |
| Cc1ccc(-c2[nH]c3ccccc3c2C(=O)C(=O)N(C)C)cc1 | > 79 µM (inactive) |
| COc1ccccc1N1C(=O)c2ccccc2N2C(=O)c3c(ccc(OC)c3OC)C12 (stereo not given) | 30.4 µM (inactive) |
| O=C(C(=O)N1CCCCC1)c1c(-c2ccccc2)[nH]c2ccccc12 | > 79 µM (inactive) |
| COc1ccc(N2C(=O)c3ccccc3N3C(=O)c4c(ccc(OC)c4OC)C23)cc1 (stereo not given) | 23.4 µM (inactive) |
| COc1ccc(-c2cc(C(=O)N(C)Cc3ccc(OC)c(OC)c3OC)c3ccccc3n2)cc1OC | 10.1 µM (inactive) |
| Cc1ccc2cc(CN(C)S(=O)(=O)c3ccc(F)cc3)c(=O)[nH]c2c1 | > 79 µM (inactive) |
| COc1cccc(CN(C)C(=O)c2cc(-c3ccc(OC)c(OC)c3)nc3ccccc23)c1 | 10.7 µM (inactive) |
| Cc1ccc(C)c(S(=O)(=O)N2CCN(C(=O)c3cc4cc(C)ccc4nc3C)CC2)c1 | > 79 µM (inactive) |
| COc1cccc(CN(C)C(=O)c2cc(-c3ccccc3)nc3ccc(C)cc23)c1OC | > 79 µM (inactive) |
| CC(C)CCNC(=O)C(c1ccc(O)cc1)N(C(=O)c1snc(C(N)=O)c1N)c1ccccc1F (stereo not given) | > 79 µM (inactive) |
| Cc1ccc(S(=O)(=O)N(Cc2cccnc2)Cc2cc3ccccc3[nH]c2=O)cc1 | > 79 µM (inactive) |
| COc1ccc(-c2cc(C(=O)NCc3ccco3)c3ccccc3n2)cc1OC | 41 µM |
| COc1ccc2c(c1OC)C(=O)N1c3ccccc3C(=O)N(c3cccc(Br)c3)C21 (stereo not given) | 10.7 µM (inactive) |

| SMILES | IC50 |
| --- | --- |
| COc1cc(-c2cc(C(=O)Nc3cccc(C(C)=O)c3)c3ccccc3n2)cc(OC)c1OC | 8.45 µM |
| CCCN(CC(=O)Nc1ccccc1OC)C(=O)c1cc(-c2cccs2)nn1-c1ccccc1 | > 79 µM (inactive) |
| O=c1[nH]c2ccccc2cc1CN(Cc1ccco1)S(=O)(=O)c1ccc(F)cc1 | > 79 µM (inactive) |
| COc1ccc(-c2cc(C(=O)N(C)C)c3ccccc3n2)cc1OC | > 79 µM (inactive) |
| Cc1ccccc1N(C(=O)c1snc(C(N)=O)c1N)C(C(=O)NCc1ccc(F)cc1)c1ccc(O)cc1 (stereo not given) | > 79 µM (inactive) |
| CCN(CC)C(=O)C(=O)c1c(-c2ccccc2)[nH]c2ccccc12 | > 79 µM (inactive) |
| COc1ccc(-n2cc(-c3ccccc3)c3c(N4CCCC4)ncnc32)cc1 | > 79 µM (inactive) |
| Cc1ccc2cc(CN(Cc3cccnc3)S(=O)(=O)c3ccc(F)cc3)c(=O)[nH]c2c1 | > 79 µM (inactive) |
| COc1ccc2cc(C(=O)N3CCN(S(=O)(=O)c4cc(C)ccc4C)CC3)c(C)nc2c1 | > 79 µM (inactive) |
| O=C1c2ccccc2N2C(=O)c3ccccc3[C@H]2N1c1ccccc1 | 29.4 µM (inactive) |
| COc1ccc(-n2cc(-c3ccccc3)c3c(N4CCCCC4)ncnc32)cc1 | > 79 µM (inactive) |
| COc1cccc(NC(=O)CN(C)C(=O)c2cc(-c3cccs3)nn2-c2ccccc2)c1 | > 79 µM (inactive) |
| COc1ccc2c(c1OC)C(=O)N1c3ccccc3C(=O)N(c3ccccc3C)C21 (stereo not given) | 58.5 µM (inactive) |
| COc1ccc2c(=O)c(C(=O)N3CCN(S(=O)(=O)c4c(C)cc(C)cc4C)CC3)c[nH]c2c1 | > 79 µM (inactive) |
| COCCNC(=O)C(c1ccc(O)cc1)N(C(=O)c1snc(C(N)=O)c1N)c1ccccc1F (stereo not given) | > 79 µM (inactive) |
| CCN(CC)S(=O)(=O)c1cc(C(=O)N2CCN(Cc3cccc4cccnc34)CC2)ccc1C | > 79 µM (inactive) |
| CCCn1c(SC(C(=O)Nc2cccc(OC)c2)c2ccccc2)nc2ccccc2c1=O (stereo not given) | > 79 µM (inactive) |
